Measured values as given in the supplement of paper PMC10307832.

How the values were obtained:
Assay in all cases: relative viability (nuclei count vs DMSO), 5 days (fraction); higher = more cells survive
VX-11e + Palbociclib = compound: CC1=CN=C(N=C1C2=CNC(=C2)C(=O)N[C@H](CO)C3=CC(=CC=C3)Cl)NC4=C(C=C(C=C4)F)Cl [VX-11e] + CC(=O)c1c(C)c2cnc(Nc3ccc(N4CCNCC4)cn3)nc2n(C2CCCC2)c1=O [Palbociclib] (partner 0.5 µM)
In short: (§1)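 Lung cancer cell lines in 1536-well plates got either a single drug or a fixed anchor-drug dose together with five library-drug doses (not always all listed) in √10 steps, by pin tool, on the day after seeding. Nuclei were counted after 5 days, and relative viability is the treated-to-vehicle ratio of nuclei counts. Values are medians of duplicate plates.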

VX-11e + Pemetrexed = compound: CC1=CN=C(N=C1C2=CNC(=C2)C(=O)N[C@H](CO)C3=CC(=CC=C3)Cl)NC4=C(C=C(C=C4)F)Cl [VX-11e] + Nc1nc2[nH]cc(CCc3ccc(C(=O)N[C@@H](CCC(=O)O)C(=O)O)cc3)c2c(=O)[nH]1 [Pemetrexed] (partner 0.2 µM)
In short: as §1

VX-11e + Dasatinib = compound: CC1=CN=C(N=C1C2=CNC(=C2)C(=O)N[C@H](CO)C3=CC(=CC=C3)Cl)NC4=C(C=C(C=C4)F)Cl [VX-11e] + Cc1nc(Nc2ncc(C(=O)Nc3c(C)cccc3Cl)s2)cc(N2CCN(CCO)CC2)n1 [Dasatinib] (partner 0.075 µM)
In short: as §1

VX-11e + Vorinostat = compound: CC1=CN=C(N=C1C2=CNC(=C2)C(=O)N[C@H](CO)C3=CC(=CC=C3)Cl)NC4=C(C=C(C=C4)F)Cl [VX-11e] + O=C(CCCCCCC(=O)Nc1ccccc1)NO [Vorinostat] (partner 1 µM)
In short: as §1

| Cell Line | relative viability (VX-11e + Palbociclib; first compound 0.04 µM) | relative viability (VX-11e + Palbociclib; first compound 0.1265 µM) | relative viability (VX-11e + Palbociclib; first compound 0.4 µM) | relative viability (VX-11e + Palbociclib; first compound 1.265 µM) | relative viability (VX-11e + Palbociclib; first compound 4 µM) | relative viability (VX-11e + Pemetrexed; first compound 0.04 µM) | relative viability (VX-11e + Pemetrexed; first compound 0.1265 µM) | relative viability (VX-11e + Pemetrexed; first compound 0.4 µM) | relative viability (VX-11e + Pemetrexed; first compound 1.265 µM) | relative viability (VX-11e + Pemetrexed; first compound 4 µM) | relative viability (VX-11e + Dasatinib; first compound 0.04 µM) | relative viability (VX-11e + Dasatinib; first compound 0.1265 µM) | relative viability (VX-11e + Dasatinib; first compound 0.4 µM) | relative viability (VX-11e + Dasatinib; first compound 1.265 µM) | relative viability (VX-11e + Dasatinib; first compound 4 µM) | relative viability (VX-11e + Vorinostat; first compound 0.04 µM) | relative viability (VX-11e + Vorinostat; first compound 0.1265 µM) | relative viability (VX-11e + Vorinostat; first compound 0.4 µM) | relative viability (VX-11e + Vorinostat; first compound 1.265 µM) | relative viability (VX-11e + Vorinostat; first compound 4 µM) |
| --- | --- | --- | --- | --- | --- | --- | --- | --- | --- | --- | --- | --- | --- | --- | --- | --- | --- | --- | --- | --- |
| RERF-LC-KJ | 1.11 | 1.02 | 0.981 | 0.952 | 0.908 | 0.522 | 0.468 | 0.42 | 0.442 | 0.417 | 0.872 | 0.758 | 0.867 | 0.71 | 0.59 | 0.7 | 0.653 | 0.586 | 0.594 | 0.623 |
| SK-LU-1 | 0.399 | 0.355 | 0.325 | 0.365 | 0.236 | 1.01 | 0.981 | 0.975 | 0.596 | 0.301 | 0.202 | 0.184 | – | 0.147 | 0.108 | 0.827 | 0.771 | 0.766 | 0.545 | 0.298 |
| SK-MES-1 | 0.326 | 0.329 | 0.355 | 0.327 | 0.244 | 0.903 | 0.921 | 0.818 | 0.553 | 0.42 | 0.403 | 0.332 | 0.393 | 0.188 | 0.185 | 1.12 | 1.04 | 0.902 | 0.422 | 0.393 |
| SW 900 | 0.421 | 0.422 | – | 0.518 | 0.482 | 0.49 | 0.452 | – | 0.36 | 0.294 | 0.59 | 0.588 | 0.137 | 0.585 | 0.385 | 0.348 | 0.507 | – | 0.276 | 0.323 |
| SW 1573 | – | 0.342 | 0.351 | 0.259 | 0.15 | – | 0.88 | 0.703 | 0.559 | 0.393 | 0.656 | 0.641 | 0.718 | 0.424 | 0.28 | – | 0.956 | 0.408 | 0.432 | 0.466 |
| UMC-11 | – | 0.309 | 0.283 | 0.267 | 0.318 | 0.799 | 0.762 | 0.866 | 0.754 | 0.681 | 0.44 | 0.42 | 0.439 | 0.587 | 0.464 | 0.374 | 0.337 | 0.447 | 0.297 | 0.315 |
